Data: patent US20140378551A1, “Composition for the Prophylactic Treatment of Neuropathic Pain” (Universite d'Auvergne, priority 2011, published 2014)
Read-outs that look alike come from different tables or passages of the source.

Key:
neuropathic pain in rats = details: sciatic nerve ligature or formalin injection, administered during or after the operation (Eisenberg 1995; Carlton 1995), cited from earlier work
[1] = tested on: tyrosine 1472 of the NR2B sub-unit of the NMDA receptor; assay: Western blot of phosphorylated tyrosine 1472 of NR2B at the spinal level; type: in vivo, rat
Description: The effects of memantine are also evaluated in the expression of the phosphorylation of tyrosine 1472 of the NR2B sub-unit of the NMDA receptor at the spinal level by the Western-blot technique.
The rats are sacrificed by decapitation. The lumbar enlargements (L4-L6) are collected and subjected to lysis at 4° C. in 400 μL of stop buffer (50 mM Hepes, pH 7.5, containing 150 mM NaCl, 10 mM EDTA, 10 mM Na2P2O7, 2 mM Na3VO4, 100 mM NaF 1% Triton, 0.5 mM PMSF, 100 UI/mL Iniprol and 20 μM Leupeptine).
After sonication, two operations of centrifugation at 14,000 rpm at 4° C. are used to retrieve the proteins from the cytoplasm. The supernatant is retrieved and the proteins are determined by colorimetry (BC Assay UP40840A®, Interchim). They are denatured at 100° C. for five minutes in a buffer Tris 100 mM, pH 6.8, containing 6% SDS, 20% Glycerol and 20% bromophenol/(β-mercaptoethanol. Electrophoresis is used to separate the proteins on a polyacrylamide gel. The migration is done at 90 mA for two hours in the following buffer: Tris 50 mM, pH 7.4, containing 380 mM Glycine and 7 mM SDS. The proteins are then transferred to a nitrocellulose membrane (Millipore) for three hours in a buffer Tris 25 mM, pH 8.3, containing 190 mM Glycine, 20% methanol (percentage by volume). The protocols are carried out according to the recommendations of the supplier and differ according to the antibody considered.
After blocking of the non-specific sites with a solution containing 5% of non-fat dried milk, the membrane is incubated throughout the night at […] under agitation with the antibody of interest diluted in the blocking solution, namely an anti-pTyr^1472 NR2B antibody recognizing NR2B phosphorylated on tyrosine 1472 (dilution by volume=1/1000, Millipore).
The membrane is then hybridized for one hour under agitation with an antibody coupled with peroxydase (dilution by volume=1/10 000, Pierce) diluted in the blocking buffer.
The developing is done by chemiluminescence (Super Signal® West Pico
Chemiluminescent Substrate, Pierce). […]

[2] = tested on: neuropathic pain in patients; details: cited from earlier work
[3] = tested on: neuropathic pain induced by spinal nerve ligation among rats; assay: Von Frey test: mechanical allodynia, spinal nerve ligation model; type: in vivo; details: 20 mg/kg/rat/day i.p.
Description: The effects of the prolonged and preventive administration of memantine were first of all studied among rats. The model used was that of the ligation of the spinal nerve L5 (herein after called SNL for spinal nerve ligation) among rats. The emergence of neuropathic pain is assessed according to the following criteria: • the behavior of the rat following the spinal nerve ligation (SNL), • cognition, and • molecular events, including the expression of phosphorylated tyrosine 1472 of the NR2B sub-unit of the NMDA receptor at the spinal level.
The study was based on the comparison of the two main groups of animals. The first group was a control group. The rats of the control group, designated as “Sham” in the graphs, underwent no operation. They are used to assess the role of the injected substances on the individual, without there being any emergence of neuropathic pain.
Two sub-groups were set up in this group: • one sub-group treated with the vehicle which is a saline solution of NaCl 0.9% by mass, in a dose of 1 mL/kg/rat/day, by intraperitoneal injection; and • one sub-group treated with memantine in a dose of 20 mg/kg/rat/day, by intraperitoneal injection.
The second group of animals comprises rats having to undergo to spinal nerve ligation and therefore likely to develop neuropathic pain. This group is referred to in the graphs by the term SNL. As in the control group, this group is divided into two sub-groups: • one sub-group treated with the vehicle, which is a saline solution of NaCl 0.9% by mass, in a dose of 1 mL/kg/rat/day, by intraperitoneal injection; and • one sub-group treated by memantine in a dose of 20 mg/kg/rat/day, by intraperitoneal injection. […]
7. Seven to 14 days after the surgery, the neuropathic, hyperalgesic or allodynic rats are selected according to their response to nociceptive and non-nociceptive stimulation assessed through appropriate tests (see paragraph 6.1.2). […]

In the case of `CC12CC3CC(C)(C1)CC(N)(C3)C2` [memantine, 1-amino-3,5-dimethyl-adamantane], the “development of neuropathic pain in rats” value (neuropathic pain in rats) is listed as “limits the appearance of symptoms of neuropathic pain but only dose-dependently and only for a determined period of time”, the “development of neuropathic pain in rats” value (neuropathic pain in rats; listed as Memantine) is listed as “positive effect in the development of neuropathic pain in rats” and the “rate of phosphorylation of the tyrosine 1472 residue of NR2B” value ([1]; SNL rats treated preventively, spinal cord, Western blot) is listed as “equivalent firstly to that of the non-treated Sham rats and is secondly far lower than that of the operated rats that have not been treated with memantine”. For the same compound, the “phosphorylation of the tyrosine 1472 residue of NR2B” value ([1]; Sham rats, spinal cord, Western blot) was “does not significantly diminish the phosphorylation of the tyrosine 1472 residue”, the “phosphorylation of the tyrosine residue at position 1472 (pTyr1472) of NR2B” value ([1]; summary statement) was “significantly inhibits the phosphorylation” and the “relief to patients with amputated limb or nerve lesions following surgery” value ([2]; Nikolajsen et al., 2000) was “inefficacious”. For the same compound, the “effect in patients who had undergone amputation” value ([2]; administered just after the operation (Buvanendran et al, 2008)) was “beneficial effect”, the “threshold of response (mechanical allodynia)” value (“threshold of response” below) ([3]; SNL rats, 4 days preceding and 3 days following the operation) was “restores a threshold of response almost identical to that of non-operated rats” and the “threshold of response” value ([3]; SNL rats, solely post-operative injection) was “not enough to restore the normal behavior of the rats”. The “threshold of response” value ([3]; non-operated (Sham) rats, versus vehicle) was “no influence whatsoever on the behavior of non-operated rats”.
